Where only a bound is given, the exact number is not on record here.

The results in this text go back to US8642609B2, “Modulators of ATP-binding cassette transporters” (Vertex Pharmaceuticals Incorporated, priority 2003, dated 2014).

The target of this experiment is T1, ΔF508-CFTR (Homo sapiens, UniProt P13569, DEL508-508).
T1 construct: expressed in transfected cells
The experiment can be described thus: Membrane potential optical assay (FRET/VIPR), identification of correction compounds. The settings on record: for Emax: relative efficacy. The class given is cell-based. The essentials:
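Corrector screen: FRET voltage-sensor dyes (CC2-DMPE donor, DiSBAC2(3)) report Cl^− efflux-driven depolarization after 10 μM forskolin and 20 μM genistein in Cl^−-free medium. Beforehand, ΔF508-CFTR NIH3T3 fibroblasts received compound for 16 hrs at 37° C; temperature-corrected cells (27° C) served as positive control.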

T1 sequence (P13569 with tags, fused parts or gaps DEL508-508): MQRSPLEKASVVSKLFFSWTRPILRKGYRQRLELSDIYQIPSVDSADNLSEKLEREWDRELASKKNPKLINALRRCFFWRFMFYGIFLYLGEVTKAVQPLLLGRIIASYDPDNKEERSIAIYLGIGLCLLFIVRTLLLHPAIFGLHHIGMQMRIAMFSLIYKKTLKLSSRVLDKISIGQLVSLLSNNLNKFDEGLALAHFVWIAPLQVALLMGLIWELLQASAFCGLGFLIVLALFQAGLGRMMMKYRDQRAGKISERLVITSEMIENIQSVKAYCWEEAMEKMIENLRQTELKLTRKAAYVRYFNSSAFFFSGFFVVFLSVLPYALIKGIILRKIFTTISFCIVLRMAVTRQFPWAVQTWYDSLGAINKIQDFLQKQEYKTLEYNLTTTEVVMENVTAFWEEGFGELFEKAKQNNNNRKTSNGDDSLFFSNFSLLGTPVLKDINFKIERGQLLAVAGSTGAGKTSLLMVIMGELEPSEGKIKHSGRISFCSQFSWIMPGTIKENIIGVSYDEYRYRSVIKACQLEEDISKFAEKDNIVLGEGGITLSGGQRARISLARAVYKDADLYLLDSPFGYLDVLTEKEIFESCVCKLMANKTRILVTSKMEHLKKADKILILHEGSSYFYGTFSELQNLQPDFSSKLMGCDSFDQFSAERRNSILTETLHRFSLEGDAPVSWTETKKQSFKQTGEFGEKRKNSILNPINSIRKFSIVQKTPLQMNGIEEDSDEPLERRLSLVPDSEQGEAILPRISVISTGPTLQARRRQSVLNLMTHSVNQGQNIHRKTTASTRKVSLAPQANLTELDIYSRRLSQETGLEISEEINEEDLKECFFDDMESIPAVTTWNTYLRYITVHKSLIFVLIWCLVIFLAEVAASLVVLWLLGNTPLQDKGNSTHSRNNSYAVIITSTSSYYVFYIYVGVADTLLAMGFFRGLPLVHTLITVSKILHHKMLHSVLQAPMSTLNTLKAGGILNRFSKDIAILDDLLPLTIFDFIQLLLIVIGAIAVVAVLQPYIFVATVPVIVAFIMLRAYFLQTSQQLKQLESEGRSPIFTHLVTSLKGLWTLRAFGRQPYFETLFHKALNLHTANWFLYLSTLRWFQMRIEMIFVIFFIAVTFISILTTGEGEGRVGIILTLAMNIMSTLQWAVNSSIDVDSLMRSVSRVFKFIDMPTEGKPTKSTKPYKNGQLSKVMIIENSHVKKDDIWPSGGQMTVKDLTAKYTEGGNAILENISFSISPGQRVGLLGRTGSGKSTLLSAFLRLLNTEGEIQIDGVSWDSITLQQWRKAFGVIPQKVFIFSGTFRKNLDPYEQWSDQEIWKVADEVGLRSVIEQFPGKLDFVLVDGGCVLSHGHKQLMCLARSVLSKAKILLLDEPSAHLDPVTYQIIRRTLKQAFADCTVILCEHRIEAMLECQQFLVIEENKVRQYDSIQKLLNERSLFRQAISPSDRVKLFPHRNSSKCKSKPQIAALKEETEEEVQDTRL

One may read the EC50 as the concentration needed to bring the measured effect to its halfway point. The Emax is the size of the effect at its maximum, as opposed to the concentration needed. Turning to `CC(c1nc2cc(Cl)ccc2c(=O)n1C)N1CCN(S(=O)(=O)c2ccccc2)CC1` (centres unmarked) [compound 91], the EC50 lay in the range of 10 to 25 µM and the Emax lay within 25 to 100%.

As for `COc1ccc(S(=O)(=O)N2CCN(Cc3nc4ccc(Cl)cc4c(=O)n3C)CC2)cc1` [compound 137], the EC50 fell in the range of 10 to 25 µM and the maximal effect (Emax) is 25 to 100%.

Turning to `COc1ccc(S(=O)(=O)N2CCN(C(C)c3nc(NC4CCCC4)c4ccccc4n3)CC2)cc1` (centres unmarked) [compound 303], the EC50 is less than 10 µM and the maximal response (Emax) is more than 100%.

Consider `COc1ccc(S(=O)(=O)N2CCN(C(C)(C)c3nc4ccc(Cl)cc4c(=O)n3C)CC2)cc1` [compound 149], for which the EC50 was less than 10 µM and the maximal effect (Emax) is 25 to 100%.

For `CC(c1nc2cc(Cl)ccc2c(=O)n1C)N1CCN(S(=O)(=O)c2ccc(S(C)(=O)=O)cc2)CC1` (centres unmarked) [compound 110], the concentration for a half-maximal effect (EC50) is 10 to 25 µM and the Emax was less than 25%.

On to `COc1ccc(S(=O)(=O)N2CCN(C(C)c3nc(OC4CCOCC4)c4ccccc4n3)CC2)cc1` (centres unmarked) [compound 300], for which the concentration giving a half-maximal response (EC50) was 25 to 60 µM and the maximal effect (Emax) is more than 100%.

For `CCN(CC)c1nc(C(C)N2CCN(S(=O)(=O)c3ccc(Br)cc3)CC2)nc2ccccc12` (centres unmarked) [compound 222], the concentration for a half-maximal effect (EC50) is less than 10 µM and the Emax is 25 to 100%.

As for `COc1ccc(S(=O)(=O)N2CCN(C(C)c3nc(N4CCC(O)CC4)c4ccccc4n3)CC2)cc1` (centres unmarked) [compound 346], the concentration giving a half-maximal response (EC50) is 25 to 60 µM and the Emax is 25 to 100%.

With `COc1ccc(S(=O)(=O)N2CCC(N(C)C(C)c3nc4ccccc4c(=O)n3C)CC2)cc1` (centres unmarked) [compound 314], the half-maximal effective concentration (EC50) lay in the range of 25 to 60 µM and the Emax was in the range of 25 to 100%.

For `CCCn1c([C@@H](C)N2CCN(S(=O)(=O)c3ccc(Br)cc3)CC2)nc2ccccc2c1=O` [compound 148], the EC50 was less than 10 µM and the Emax was more than 100%.

For the molecule `CC(c1nc2ccccc2c(=O)n1C)N1CCN(S(=O)(=O)N(C)C)CC1` (centres unmarked) [compound 292], the half-maximal effective concentration (EC50) lay within 25 to 60 µM and the maximal effect (Emax) was less than 25%.

For the molecule `CCCn1c(C(CC)N2CCN(S(=O)(=O)c3ccc(OC)cc3)CC2)nc2ccccc2c1=O` (centres unmarked) [compound 342], the EC50 is less than 10 µM and the Emax fell in the range of 25 to 100%.

Consider `COc1ccc(S(=O)(=O)N2CCN(C(C)c3nc(N(C)Cc4ccccc4)c4ccccc4n3)CC2)cc1` (centres unmarked) [compound 368], for which the EC50 is less than 10 µM and the Emax was more than 100%.

As to `COc1ccc(S(=O)(=O)N2CCN(C(C)c3ncc(Br)c(OC4CCCC4)n3)CC2)cc1` (centres unmarked) [compound 381], the EC50 is less than 10 µM and the maximum response (Emax) is more than 100%.

Take `COc1ccc(S(=O)(=O)NCCCN(C(C)c2nc3ccccc3c(=O)n2C)S(=O)(=O)c2ccc(OC)cc2)cc1` (centres unmarked) [compound 205]: the EC50 is 25 to 60 µM and the Emax is less than 25%.

For the molecule `CC(c1nc2ccccc2c(=O)n1C)N1CCN(S(=O)(=O)c2ccccc2Cl)CC1` (centres unmarked) [compound 229], the 50% effective concentration (EC50) lay within 25 to 60 µM and the Emax is 25 to 100%.

Consider `CC(NCCCNS(=O)(=O)c1ccc(Br)cc1)c1nc2ccccc2c(=O)n1C` (centres unmarked) [compound 174], for which the EC50 lay in the range of 25 to 60 µM and the maximal response (Emax) fell in the range of 25 to 100%.

For the molecule `CC(c1nc2ccc(Br)cc2c(=O)n1C)N1CCN(S(=O)(=O)c2ccc(Cl)cc2)CC1` (centres unmarked) [compound 117], the half-maximal effective concentration (EC50) lay in the range of 10 to 25 µM and the maximal response (Emax) was 25 to 100%.

Take `CC(c1nc2ccccc2c(=O)n1C)N(C[C@@H]1CCCCN1S(=O)(=O)c1ccc(Br)cc1)S(=O)(=O)c1ccc(Br)cc1` (some centres unmarked) [compound 204]: the 50% effective concentration (EC50) was 25 to 60 µM and the Emax was less than 25%.

For the molecule `CSc1nccc(-c2ccc(S(=O)(=O)N3CCN(C(C)c4nc5ccccc5c(=O)n4C)CC3)s2)n1` (centres unmarked) [compound 277], the EC50 lay within 25 to 60 µM and the Emax was less than 25%.

Consider `COc1ccc(S(=O)(=O)N2CC3CC2CN3C(C)c2nc3ccccc3c(=O)n2C)cc1` (centres unmarked) [compound 175], for which the concentration for a half-maximal effect (EC50) lay in the range of 25 to 60 µM and the maximal effect (Emax) is less than 25%.

In the case of `COc1ccc(S(=O)(=O)N2CCN(C(=O)c3nc(N4CCCCC4)c4ccccc4n3)CC2)cc1` [compound 402], the concentration for a half-maximal effect (EC50) was in the range of 25 to 60 µM and the Emax was less than 25%.

With `Cc1cccc(C(=O)N2CCN(C(C)c3nc4ccc(Cl)cc4c(=O)n3C)CC2)c1` (centres unmarked) [compound 59], the 50% effective concentration (EC50) was in the range of 25 to 60 µM and the maximal response (Emax) lay in the range of 25 to 100%.

On to `CC(c1nc2ccccc2c(=O)n1C)N1CCN(S(=O)(=O)c2ccc(C(N)=O)cc2)CC1` (centres unmarked) [compound 291], for which the 50% effective concentration (EC50) lay within 25 to 60 µM and the maximal response (Emax) was less than 25%.

Take `CC(NC1CCN(S(=O)(=O)c2ccc(Br)cc2)C1)c1nc2ccccc2c(=O)n1C` (centres unmarked) [compound 226]: the concentration for a half-maximal effect (EC50) was in the range of 25 to 60 µM and the Emax was in the range of 25 to 100%.

Consider `CC(c1nc2ccc(Cl)cc2c(=O)n1C)N1CCN(S(=O)(=O)c2ccccc2)CC1` (centres unmarked) [compound 71], for which the concentration for a half-maximal effect (EC50) lay in the range of 10 to 25 µM and the maximum response (Emax) was in the range of 25 to 100%.

For `CCCC1CCN(c2nc(C(C)N3CCN(S(=O)(=O)c4ccc(OC)cc4)CC3)nc3ccccc23)CC1` (centres unmarked) [compound 365], the EC50 was less than 10 µM and the maximal response (Emax) was more than 100%.

As to `CC(c1nc2cc(Cl)ccc2c(=O)n1C)N1CCN(C(=O)Cc2ccccc2)CC1` (centres unmarked) [compound 112], the EC50 was 10 to 25 µM and the Emax is less than 25%.

As to `CC(c1nc2ccccc2c(=O)n1C)N1CCN(S(=O)(=O)c2ccc(-c3cc(C(F)(F)F)nn3C)s2)CC1` (centres unmarked) [compound 258], the 50% effective concentration (EC50) is 25 to 60 µM and the Emax is less than 25%.

In the case of `CC(NCCN)c1nc2ccccc2c(=O)n1C` (centres unmarked) [compound 181], the 50% effective concentration (EC50) was in the range of 25 to 60 µM and the Emax is less than 25%.

Regarding `Cc1cccc(S(=O)(=O)N2CCN(C(C)c3nc4cc(Cl)ccc4c(=O)n3C)CC2)c1` (centres unmarked) [compound 96], the EC50 was less than 10 µM and the Emax was in the range of 25 to 100%.

`CCNc1nc(C(C)N2CCN(S(=O)(=O)c3ccc(Br)cc3)CC2)nc2ccccc12` (centres unmarked) [compound 221]: the 50% effective concentration (EC50) lay within 25 to 60 µM and the Emax lay in the range of 25 to 100%.

`CCC(c1nc2ccccc2c(=O)n1C)N1CCN(S(=O)(=O)c2ccc(OC)cc2)CC1` (centres unmarked) [compound 337]: the 50% effective concentration (EC50) was 10 to 25 µM and the Emax is more than 100%.

Regarding `COc1ccc(S(=O)(=O)N2CCN(C(C)c3nc4ccc(N)cc4c(=O)n3C)CC2)cc1` (centres unmarked) [compound 145], the EC50 lay in the range of 10 to 25 µM and the maximal effect (Emax) was in the range of 25 to 100%.

With `COc1ccc(S(=O)(=O)N2CCN(Cc3nc(N4CCCCC4)c4ccccc4n3)CC2)cc1` [compound 384], the 50% effective concentration (EC50) lay within 10 to 25 µM and the maximal effect (Emax) is more than 100%.

`CC(c1nc2ccccc2c(=O)n1C)N1CCN(S(=O)(=O)c2c(Cl)nc3sccn23)CC1` (centres unmarked) [compound 268]: the concentration for a half-maximal effect (EC50) fell in the range of 25 to 60 µM and the Emax is less than 25%.

In the case of `COc1ccc(S(=O)(=O)N2CCN(C(C)c3nc(N4CCCC4C)c4ccccc4n3)CC2)cc1` (centres unmarked) [compound 325], the EC50 was less than 10 µM and the Emax was more than 100%.

On to `COc1ccc(S(=O)(=O)N2CCC(C(C)c3nc(OC4CCCCC4)c4ccccc4n3)CC2)cc1` (centres unmarked) [compound 404], for which the concentration giving a half-maximal response (EC50) was less than 10 µM and the Emax is more than 100%.

`CC(c1nc2cccc(Cl)c2c(=O)n1C)N1CCN(S(=O)(=O)c2ccc(Br)cc2)CC1` (centres unmarked) [compound 105]: the EC50 is 10 to 25 µM and the Emax was 25 to 100%.

For `COc1ccc(S(=O)(=O)N2CCN(C(C)c3nc(OC)c4ccccc4n3)CC2)cc1` (centres unmarked) [compound 187], the half-maximal effective concentration (EC50) is 25 to 60 µM and the Emax fell in the range of 25 to 100%.
